pKi: −log10 of the molar value.
Experiments:
mice = experiment: fast refeed (fast-refeeding) assay in mice; assay type: in vivo
Protocol: In vivo assays. Exemplary in vivo assays include the fast-refeeding assay described in Example 1 and as follows.
Food is removed at 6 pm for an overnight (˜16 hour) fast. Beginning at 10 am on the next morning, mice are administered with either vehicle (e.g., saline+acetic acid, pH=5) or the compound of interest. Mice are then returned to their home cages and pre-weighed food (approximately 90 grams) is immediately returned to the food hoppers in each cage. The weight of the food remaining in the food hoppers is measured at 30 minutes, 1 hour, 2 hours, and 4 hours post compound/vehicle administration. Final body weights are then recorded for the mice.

GHS-R = molecular target: T1, GHS-R (Homo sapiens, UniProt Q92847); experiment: GHS-R competition binding assay (Ki of GHS-R antagonizing compounds)
T1 construct: expressed in transfected cells; host or cells: COS-7 cells
T1 sequence (Q92847 whole entry, species assumed): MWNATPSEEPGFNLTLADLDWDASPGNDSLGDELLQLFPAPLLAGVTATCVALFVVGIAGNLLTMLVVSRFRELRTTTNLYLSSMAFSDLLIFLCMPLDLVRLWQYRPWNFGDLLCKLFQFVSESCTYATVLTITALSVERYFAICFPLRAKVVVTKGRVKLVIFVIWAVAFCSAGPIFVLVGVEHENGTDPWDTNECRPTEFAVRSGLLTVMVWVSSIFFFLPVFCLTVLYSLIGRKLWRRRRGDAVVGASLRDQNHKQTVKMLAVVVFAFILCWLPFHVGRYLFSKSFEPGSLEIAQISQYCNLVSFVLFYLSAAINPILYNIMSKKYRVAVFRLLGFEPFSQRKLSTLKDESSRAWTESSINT
Outline: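 COS-7 cells expressing GHS-R (1×10^5 cells/well) competed against 25 pM ^125I-ghrelin for 3 hours at 4° C in 50 mM HEPES pH 7.4 with 1 mM CaCl2, 5 mM MgCl2, 0.1% BSA, bacitracin. Nonspecific binding with […]; bound radioactivity counted after washing and lysis. Ki=IC50/(1+L/Kd).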

| Molecule | pKi (GHS-R) | feeding activity of mice in the fast refeed assay (mice) |
| --- | --- | --- |
| substance P: substance P; found to modulate GHS-R activity and to alter feeding activity of mice |  | alters feeding activity |
| CCN(CC)CCCS(=O)(=O)N[C@H](CCc1ccccc1)C(=O)c1ccc(-c2ccccc2CO)cc1 [Compound 168, (R)-3-(diethylamino)-N-(1-(2′-(hydroxymethyl)biphenyl-4-yl)-1-oxo-4-phenylbutan-2-yl)propane-1-sulfonamide] | > 7.00 |  |
| CC(C)(C)NCCCS(=O)(=O)N[C@H](COCc1ccccc1)C(=O)N1CCC2(CC1)CN(S(C)(=O)=O)c1ccccc12 [Compound 143, (R)-N-(3-(benzyloxy)-1-(1-(methylsulfonyl)spiro[indoline-3,4′-piperidine]-1′-yl)-1-oxopropan-2-yl)-3-(tert-butylamino)propane-1-sulfonamide] | 6.00 to 7.00 |  |
| CCN(CC)CCCS(=O)(=O)N[C@H](CCc1ccccc1)C(=O)NCc1ccc(-c2ccccc2CO)cc1 [Compound 207, (R)-2-(3-(diethylamino)propylsulfonamido)-N-((2′-(hydroxymethyl)biphenyl-4-yl)methyl)-4-phenylbutanamide] | > 7.00 |  |
| CCN(CC)CCCS(=O)(=O)N[C@H](CCc1ccccc1)C(=O)c1ccc(-c2ccccc2CN)cc1 [Compound 191, (R)-N-(1-(2′-(aminomethyl)biphenyl-4-yl)-1-oxo-4-phenylbutan-2-yl)-3-(diethylamino)propane-1-sulfonamide] | 6.00 to 7.00 |  |
| (R)-N-(3-(benzyloxy)-1-(1-(methylsulfonyl)spiro[indoline-3,4′-piperidine]-1′-yl)-1-oxopropan-2-yl)-3-isosulfonylazolidine [Compound 151] | 6.00 to 7.00 |  |

Second part, led by results:

| pKi (GHS-R) | Molecule | feeding activity of mice in the fast refeed assay (mice) |
| --- | --- | --- |
| > 7.00 | CCN(CC)CCS(=O)(=O)N[C@@H](COCc1ccccc1)C(=O)N1CCC2(CC1)CN(S(C)(=O)=O)c1ccccc12 [Compound 199, (S)-N-(3-(benzyloxy)-1-(1-(methylsulfonyl)spiro[indoline-3,4′-piperidine]-1′-yl)-1-oxopropan-2-yl)-2-(diethylamino)ethanesulfonamide] |  |
| < 6.00 | CCN(CC)CCCS(=O)(=O)N[C@H](COCc1ccccc1)C(=O)NCc1ccc(-c2ccccc2CNC(C)=O)cc1 [Compound 216, (R)-N-[2′-(Acetylamino-methyl)-biphenyl-4-ylmethyl]-3-benzyloxy-2-(3-diethylamino-propane-1-sulfonylamino)-propionamide] |  |
| 6.00 to 7.00 | CS(=O)(=O)N1CC2(CCN(C(=O)[C@@H](CCCc3ccccc3)NS(=O)(=O)CCCN=[N+]=[N-])CC2)c2ccccc21 [Compound 220, (R)-3-azido-N-(1-(1-(methylsulfonyl)spiro[indoline-3,4′-piperidine]-1′-yl)-1-oxo-5-phenylpentan-2-yl)propane-1-sulfonamide] |  |
| 6.00 to 7.00 | CCN(C)CCS(=O)(=O)N[C@H](COCc1ccccc1)C(=O)N1CCC2(CC1)CN(S(C)(=O)=O)c1ccccc12 [Compound 130, (R)-N-(3-(benzyloxy)-1-(1-(methylsulfonyl)spiro[indoline-3,4′-piperidine]-1′-yl)-1-oxopropan-2-yl)-2-(ethyl(methyl)amino)ethanesulfonamide] |  |
| < 6.00 | CCN(CCS(=O)(=O)N[C@H](COCc1ccccc1)C(=O)N1CCC2(CC1)CN(S(C)(=O)=O)c1ccccc12)C(C)C [Compound 133, (R)-N-(3-(benzyloxy)-1-(1-(methylsulfonyl)spiro[indoline-3,4′-piperidine]-1′-yl)-1-oxopropan-2-yl)-2-(ethyl(isopropyl)amino)ethanesulfonamide] |  |
| 6.00 to 7.00 | CCN(CC)CCCS(=O)(=O)N[C@H](COCc1ccccc1)C(=O)c1ccc(-c2ccccc2COC(=O)NC)cc1 [Compound 219, (R)-Methyl-carbamic acid 4′-[(R)-3-benzyloxy-2-(3-diethylamino-propane-1-sulfonylamino)-propionyl]-biphenyl-2-ylmethyl ester] |  |
| 6.00 to 7.00 | CCNC(=O)Nc1ccccc1-c1ccc(C(=O)[C@@H](COCc2ccccc2)NS(=O)(=O)CCCN(CC)CC)cc1 [Compound 175, (R)-N-(3-(benzyloxy)-1-(2′-(3-ethylureido)biphenyl-4-yl)-1-oxopropan-2-yl)-3-(diethylamino)propane-1-sulfonamide] |  |
